Reference: ChEMBL document CHEMBL1649541, “Molecular basis and phenotype of methicillin resistance in Staphylococcus aureus and insights into new beta-lactams that meet the challenge” (Antimicrob Agents Chemother, 2009)
Converted amounts (≈) assume the structure as drawn.

Assays:
Staphylococcus aureus [1] = assay: Antimicrobial activity against methicillin-resistant Staphylococcus aureus in mouse systemic infection model; format: functional
Staphylococcus aureus [2] = assay: Antimicrobial activity against methicillin-susceptible Staphylococcus aureus ATCC 29213 by M7-A7 dilution method; format: functional
[3] = biological target: T1, Penicillin-binding protein 2b (Staphylococcus aureus, UniProt Q9XDB3); assay: Inhibition of methicillin-susceptible Staphylococcus aureus ATCC 29213 PBP 3
T1 sequence (Q9XDB3 whole entry): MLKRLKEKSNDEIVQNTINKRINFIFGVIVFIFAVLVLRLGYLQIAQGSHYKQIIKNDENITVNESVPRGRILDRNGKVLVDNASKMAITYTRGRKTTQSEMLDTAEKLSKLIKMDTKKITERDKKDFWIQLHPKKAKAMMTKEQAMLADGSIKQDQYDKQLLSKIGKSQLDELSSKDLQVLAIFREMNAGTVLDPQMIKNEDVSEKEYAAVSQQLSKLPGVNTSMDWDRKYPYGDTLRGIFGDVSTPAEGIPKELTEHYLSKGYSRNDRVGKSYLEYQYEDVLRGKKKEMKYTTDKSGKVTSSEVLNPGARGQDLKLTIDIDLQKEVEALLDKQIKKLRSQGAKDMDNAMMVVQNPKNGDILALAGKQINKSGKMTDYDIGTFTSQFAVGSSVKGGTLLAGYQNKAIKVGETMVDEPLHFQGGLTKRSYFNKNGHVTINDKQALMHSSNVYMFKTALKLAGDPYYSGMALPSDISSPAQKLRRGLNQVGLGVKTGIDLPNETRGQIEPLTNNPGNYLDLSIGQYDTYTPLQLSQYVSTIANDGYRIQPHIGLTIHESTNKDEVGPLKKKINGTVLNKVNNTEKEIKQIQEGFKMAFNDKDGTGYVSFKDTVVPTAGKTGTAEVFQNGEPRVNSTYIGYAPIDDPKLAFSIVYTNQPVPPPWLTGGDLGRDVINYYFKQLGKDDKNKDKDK

[4] = biological target: T2, Penicillin-binding protein 1 (Staphylococcus aureus, UniProt Q53725); assay: Inhibition of methicillin-susceptible Staphylococcus aureus ATCC 29213 PBP 1
T2 sequence (Q53725 whole entry): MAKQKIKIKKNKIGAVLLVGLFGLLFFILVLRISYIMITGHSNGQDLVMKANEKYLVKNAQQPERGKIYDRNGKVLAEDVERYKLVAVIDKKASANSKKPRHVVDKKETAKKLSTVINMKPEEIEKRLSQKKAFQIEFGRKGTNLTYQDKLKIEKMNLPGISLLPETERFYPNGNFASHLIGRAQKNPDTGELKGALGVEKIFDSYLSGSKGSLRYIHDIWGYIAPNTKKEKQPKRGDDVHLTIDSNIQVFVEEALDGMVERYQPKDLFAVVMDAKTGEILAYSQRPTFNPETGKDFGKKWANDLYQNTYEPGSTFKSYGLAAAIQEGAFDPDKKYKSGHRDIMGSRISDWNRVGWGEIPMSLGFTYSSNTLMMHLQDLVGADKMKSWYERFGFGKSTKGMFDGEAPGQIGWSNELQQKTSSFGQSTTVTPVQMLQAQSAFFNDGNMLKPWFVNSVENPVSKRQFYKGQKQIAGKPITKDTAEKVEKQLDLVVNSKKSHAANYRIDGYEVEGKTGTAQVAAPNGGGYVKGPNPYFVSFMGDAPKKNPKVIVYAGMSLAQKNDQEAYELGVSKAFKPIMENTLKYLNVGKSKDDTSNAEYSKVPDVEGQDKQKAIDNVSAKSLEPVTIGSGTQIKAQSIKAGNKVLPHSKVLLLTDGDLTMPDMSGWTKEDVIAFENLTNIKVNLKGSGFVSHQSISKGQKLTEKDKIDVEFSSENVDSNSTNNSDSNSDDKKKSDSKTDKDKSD

MecA [5] = biological target: T3, MecA (Staphylococcus aureus, UniProt Q7DHH4); assay: Inhibition of methicillin-resistant Staphylococcus aureus OC 3726 PBP 2a
T3 sequence (Q7DHH4 whole entry): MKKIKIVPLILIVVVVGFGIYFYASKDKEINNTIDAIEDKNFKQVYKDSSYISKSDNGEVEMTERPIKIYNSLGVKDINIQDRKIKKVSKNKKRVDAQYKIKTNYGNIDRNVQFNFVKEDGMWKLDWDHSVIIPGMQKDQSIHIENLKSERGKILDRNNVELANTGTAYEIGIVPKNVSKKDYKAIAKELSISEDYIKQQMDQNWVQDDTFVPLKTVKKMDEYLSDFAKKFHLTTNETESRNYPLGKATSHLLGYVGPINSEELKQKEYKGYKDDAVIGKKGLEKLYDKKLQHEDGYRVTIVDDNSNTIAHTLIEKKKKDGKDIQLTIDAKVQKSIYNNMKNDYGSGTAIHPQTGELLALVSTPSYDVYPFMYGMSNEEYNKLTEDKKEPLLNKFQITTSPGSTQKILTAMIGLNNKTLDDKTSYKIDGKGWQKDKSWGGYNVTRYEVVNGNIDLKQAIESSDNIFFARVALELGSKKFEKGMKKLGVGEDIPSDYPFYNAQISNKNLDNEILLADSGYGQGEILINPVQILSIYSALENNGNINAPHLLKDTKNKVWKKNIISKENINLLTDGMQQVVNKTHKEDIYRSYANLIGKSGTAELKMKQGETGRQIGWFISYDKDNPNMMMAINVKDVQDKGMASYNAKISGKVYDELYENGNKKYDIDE

Staphylococcus aureus [6] = assay: Antimicrobial activity against methicillin-resistant Staphylococcus aureus infected in patient with complicated skin and skin structure infection assessed as cure rate at 500 mg/kg, iv administered every 12 hrs; format: functional
[7] = biological target: T4, Penicillin-binding protein 4 (Staphylococcus aureus, UniProt P72355); assay: Inhibition of methicillin-susceptible Staphylococcus aureus ATCC 29213 PBP 4
T4 sequence (P72355 whole entry): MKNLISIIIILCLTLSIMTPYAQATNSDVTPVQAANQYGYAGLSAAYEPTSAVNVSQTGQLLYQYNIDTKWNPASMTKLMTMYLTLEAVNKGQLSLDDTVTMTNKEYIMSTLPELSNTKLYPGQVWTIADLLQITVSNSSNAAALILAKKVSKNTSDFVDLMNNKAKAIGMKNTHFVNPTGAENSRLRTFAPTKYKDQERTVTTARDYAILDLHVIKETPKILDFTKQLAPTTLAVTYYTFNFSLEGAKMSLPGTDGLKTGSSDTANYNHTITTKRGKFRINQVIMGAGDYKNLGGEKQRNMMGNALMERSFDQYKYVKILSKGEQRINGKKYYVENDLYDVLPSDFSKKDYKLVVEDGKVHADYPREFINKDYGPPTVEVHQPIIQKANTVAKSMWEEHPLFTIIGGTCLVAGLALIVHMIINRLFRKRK

[8] = biological target: T5, Penicillin-binding protein 2 (Staphylococcus aureus, UniProt Q53729); assay: Inhibition of methicillin-susceptible Staphylococcus aureus ATCC 29213 PBP 2
T5 sequence (Q53729 whole entry): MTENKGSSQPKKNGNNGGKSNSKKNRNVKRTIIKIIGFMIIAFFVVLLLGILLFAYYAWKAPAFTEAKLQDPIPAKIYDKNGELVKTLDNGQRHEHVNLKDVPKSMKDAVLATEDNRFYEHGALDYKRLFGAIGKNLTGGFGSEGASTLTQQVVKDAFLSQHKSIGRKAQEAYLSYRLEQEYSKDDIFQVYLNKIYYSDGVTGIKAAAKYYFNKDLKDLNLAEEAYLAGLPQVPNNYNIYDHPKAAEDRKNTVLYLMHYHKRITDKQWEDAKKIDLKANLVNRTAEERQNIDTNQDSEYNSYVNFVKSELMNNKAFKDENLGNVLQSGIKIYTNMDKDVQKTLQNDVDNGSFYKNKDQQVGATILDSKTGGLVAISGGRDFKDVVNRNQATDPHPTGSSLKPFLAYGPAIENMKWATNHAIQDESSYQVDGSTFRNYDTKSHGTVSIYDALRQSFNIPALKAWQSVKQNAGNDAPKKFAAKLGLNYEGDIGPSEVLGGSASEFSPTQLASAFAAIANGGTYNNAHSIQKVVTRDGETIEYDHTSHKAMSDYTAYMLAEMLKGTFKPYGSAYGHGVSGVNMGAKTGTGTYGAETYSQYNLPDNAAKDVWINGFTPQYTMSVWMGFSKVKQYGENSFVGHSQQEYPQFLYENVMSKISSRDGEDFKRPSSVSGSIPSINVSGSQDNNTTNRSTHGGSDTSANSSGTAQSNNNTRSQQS

Staphylococcus aureus [9] = assay: Antimicrobial activity against methicillin-resistant Staphylococcus aureus infected in patient with complicated skin and skin structure infection assessed as cure rate at 1 g/kg, iv administered every 12 hrs; format: functional
MecA [10] = biological target: T3, MecA; assay: Binding affinity to methicillin-resistant Staphylococcus aureus MF535HR PBP 2a by competitive binding assay
[11] = biological target: T5, Penicillin-binding protein 2; assay: Binding affinity to methicillin-susceptible Staphylococcus aureus PBP 2
Staphylococcus aureus [12] = assay: Antimicrobial activity against community-acquired Staphylococcus aureus; format: functional
[13] = biological target: T2, Penicillin-binding protein 1; assay: Binding affinity to methicillin-susceptible Staphylococcus aureus PBP 1
Staphylococcus aureus [14] = assay: Antimicrobial activity against vancomycin-resistant Staphylococcus aureus; format: functional
Staphylococcus aureus [15] = assay: Antimicrobial activity against daptomycin-nonsusceptible Staphylococcus aureus; format: functional
[16] = biological target: T1, Penicillin-binding protein 2b; assay: Binding affinity to methicillin-susceptible Staphylococcus aureus PBP 3
Staphylococcus aureus [17] = assay: Antimicrobial activity against methicillin-resistant Staphylococcus aureus ATCC 29213 by CLSI method; format: functional
[18] = biological target: T4, Penicillin-binding protein 4; assay: Binding affinity to methicillin-susceptible Staphylococcus aureus PBP 4
Staphylococcus aureus [19] = assay: Antimicrobial activity against vancomycin-intermediate Staphylococcus aureus; format: functional
MecA [20] = biological target: T3, MecA; assay: Inhibition of methicillin-resistant Staphylococcus aureus PBP 2a
Staphylococcus aureus [21] = assay: Antimicrobial activity against methicillin-resistant Staphylococcus aureus; format: functional
Staphylococcus aureus [22] = assay: Bactericidal activity against methicillin-resistant Staphylococcus aureus; format: functional
Staphylococcus aureus [23] = assay: Ratio of MBC to MIC for methicillin-resistant Staphylococcus aureus; format: functional

CN[C@H](CC(C)C)C(=O)N[C@H]1C(=O)N[C@@H](CC(N)=O)C(=O)N[C@H]2C(=O)N[C@H]3C(=O)N[C@H](C(=O)N[C@H](C(=O)O)c4cc(O)cc(O)c4-c4cc3ccc4O)[C@H](O)c3ccc(c(Cl)c3)Oc3cc2cc(c3O[C@@H]2O[C@H](CO)[C@@H](O)[C@H](O)[C@H]2O[C@H]2C[C@](C)(N)[C@H](O)[C@H](C)O2)Oc2ccc(cc2Cl)[C@H]1O [VANCOMYCIN]
ED50 (Staphylococcus aureus [1]): 6 mg/kg

CO/N=C(\C(=O)N[C@@H]1C(=O)N2C(C(=O)O)=C(CSc3nc(=O)c(O)nn3C)CS[C@H]12)c1csc(N)n1 [CEFTRIAXONE]
MIC (Staphylococcus aureus [2]): > 64 µg/mL

CC(C)(O/N=C(\C(=O)N[C@@H]1C(=O)N2C(C(=O)[O-])=C(C[n+]3ccccc3)CS[C@H]12)c1csc(N)n1)C(=O)O [CEFTAZIDIME]
MIC (Staphylococcus aureus [2]): > 128 µg/mL

Cc1oc(=O)oc1COC(=O)N1CC[C@@H](N2CC/C(=C\C3=C(C(=O)O)N4C(=O)[C@@H](NC(=O)/C(=N/O)c5nsc(N)n5)[C@H]4SC3)C2=O)C1 [CEFTOBIPROLE MEDOCARIL FREE ACID]
IC50 [3]: 0.0724 µM | IC50 [4]: 0.145 µM | IC50 (MecA [5]): 1.3 µM | Activity (Staphylococcus aureus [6]): 92% | IC50 [7]: 1.45 µM | IC50 [8]: 0.724 µM | MIC (Staphylococcus aureus [2]): 2 µg/mL (≈ 2.9 µM) | Activity (Staphylococcus aureus [9]): 90%

C[C@@H](O)[C@H]1C(=O)N2C(C(=O)[O-])=C(c3cn4cnc(C(=O)c5ccc[n+](CC(N)=O)c5)c4s3)[C@H](C)[C@H]12
IC50 (MecA [10]): 0.262 µM

CC(=O)NC[C@H]1CN(c2ccc(N3CCOCC3)c(F)c2)C(=O)O1 [LINEZOLID]
ED50 (Staphylococcus aureus [1]): 7.4 mg/kg

CCO/N=C(\C(=O)N[C@@H]1C(=O)N2C(C(=O)[O-])=C(Sc3nc(-c4cc[n+](C)cc4)cs3)CS[C@H]12)c1nsc(NP(=O)(O)O)n1 [CEFTAROLINE FOSAMIL]
IC50 [11]: 0.0497 µM | MIC90 (Staphylococcus aureus [12]): 1 µg/mL (≈ 1.46 µM) | IC50 [13]: 0.146 µM | MIC (Staphylococcus aureus [14]): 0.12 µg/mL (≈ 0.175 µM) | MIC (Staphylococcus aureus [15]): 0.5 µg/mL (≈ 0.73 µM) | IC50 [16]: 0.0716 µM | MIC (Staphylococcus aureus [17]): 0.25 µg/mL (≈ 0.365 µM) | IC50 [18]: > 1.46 µM | MIC90 (Staphylococcus aureus [19]): 1 µg/mL (≈ 1.46 µM) | IC50 (MecA [20]): 0.234 µM

C[C@H]1C=C(c2csc(SC3=C(C(=O)O)N4C(=O)[C@H]([C@@H](C)O)[C@H]4[C@H]3C)n2)CN1 [RAZUPENEM]
MIC90 (Staphylococcus aureus [21]): 2 µg/mL (≈ 4.91 µM) | ED50 (Staphylococcus aureus [1]): 4.7 mg/kg | MBC (Staphylococcus aureus [22]): 0.5 µg/mL (≈ 1.23 µM) | Ratio (Staphylococcus aureus [23]): 1
